# Measurements published in patent publication US6737383B1, “Herbicidal oxadiazolidines” (priority 1999, dated 2004).
# Legend:
# [1] = tested on: bedstraw; test: Test B pre/postemergence bedstraw; format: in vivo, Galium aparine
# How it was run: (§1)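 Response is a visual 0-to-10 score relative to untreated plants, where 0 means no effect and 10 means complete control, taken twelve to sixteen days after application. Treatments went onto soil at planting and onto foliage of 1- to 4-leaf plants, using a surfactant-containing non-phytotoxic solvent.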
# [2] = tested on: surinam grass; test: Test B pre/postemergence surinam grass; format: in vivo, Brachiaria decumbens
# How it was run: as §1
# [3] = tested on: cocklebur; test: Test B pre/postemergence cocklebur; format: in vivo, Xanthium strumarium
# How it was run: as §1
# [4] = tested on: corn; test: Test B pre/postemergence corn; format: in vivo, Zea mays
# How it was run: as §1
# [5] = tested on: giant foxtail; test: Test B pre/postemergence giant foxtail; format: in vivo, Setaria faberii
# How it was run: as §1
# [6] = tested on: pigweed; test: Test B pre/postemergence pigweed; format: in vivo, Amaranthus retroflexus
# How it was run: as §1
# [7] = tested on: rape; test: Test B pre/postemergence rape; format: in vivo, Brassica napus
# How it was run: as §1
# [8] = tested on: soybean; test: Test B pre/postemergence soybean; format: in vivo, Glycine max
# How it was run: as §1
# [9] = tested on: sugar beet; test: Test B pre/postemergence sugar beet; format: in vivo, Beta vulgaris
# How it was run: as §1
# [10] = tested on: velvetleaf; test: Test B pre/postemergence velvetleaf; format: in vivo, Abutilon theophrasti
# How it was run: as §1
# [11] = tested on: wheat; test: Test B pre/postemergence wheat; format: in vivo, Triticum aestivum
# How it was run: as §1
# [12] = tested on: wild oat; test: Test B pre/postemergence wild oat; format: in vivo, Avena fatua
# How it was run: as §1
# [13] = tested on: purple nutsedge; test: Test B pre/postemergence purple nutsedge; format: in vivo, Cyperus rotundus
# How it was run: as §1
# [14] = tested on: rice; test: Test B flood test rice; format: in vivo, Oryza sativa
# How it was run: (§2)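 Flood test on plants grown to the 2-leaf stage; treated plants kept in greenhouse twelve to sixteen days, then visually rated against controls on a 0 (no effect) to 10 (complete control) scale.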
# [15] = tested on: smallflower flatsedge; test: Test B flood test smallflower flatsedge; format: in vivo, Cyperus difformis
# How it was run: as §2
# [16] = tested on: duck salad; test: Test B flood test duck salad; format: in vivo, Heteranthera limosa
# How it was run: as §2
# [17] = Preemergence, Rate 62 g/ha, scale of 0 to 10 where 0 is no effect and 10 is complete control
# [18] = Preemergence, Rate 250 g/ha, scale of 0 to 10 where 0 is no effect and 10 is complete control
# [19] = Rate 62 g/ha, Postemergence, scale 0 to 10 (0 no effect, 10 complete control)
# [20] = Rate 125 g/ha, Postemergence, scale of 0 to 10 where 0 is no effect and 10 is complete control
# [21] = Preemergence, Rate 500 g/ha, scale of 0 to 10 where 0 is no effect and 10 is complete control
# [22] = Rate 250 g/ha, Postemergence, scale of 0 to 10 where 0 is no effect and 10 is complete control
# [23] = Rate 500 g/ha, Postemergence, scale 0 to 10, 0 no effect, 10 complete control
# [24] = Rate 62 g/ha, headed Pre-emergence (flood test species), scale 0 to 10 (0 no effect, 10 complete control)
# [25] = Rate 125 g/ha, Pre-emergence, flood test species, scale 0 to 10 where 0 is no effect and 10 is complete control
# [26] = Rate 250 g/ha, Pre-emergence, flood-test species, scale 0 to 10, 0 is no effect, 10 is complete control
# [27] = Rate 500 g/ha, Pre-emergence, flood test species, scale 0 to 10 (0 no effect, 10 complete control)
smiles,measurement,setting,value
CC(C)N(C(=O)n1oc(=O)n(CCCN(C)C)c1=O)c1ccc(F)cc1 [Compound 323],Bedstraw plant response rating,[1]; [17],0
same,Bedstraw plant response rating (0 to 10 scale),"[1]; Preemergence, Rate 125 g/ha",0
same,Bedstraw plant response rating,[1]; [18],0
same,Bedstraw plant response rating,[1]; [19],0
same,Bedstraw plant response rating,[1]; [20],0
same,B. signalgrass plant response rating,[2]; [17],0
same,"B. signalgrass plant response rating (0 to 10 scale, 0 is no effect, 10 is complete control)","[2]; Preemergence, Rate 125 g/ha",0
same,B. signalgrass plant response rating,[2]; [18],0
same,B. signalgrass plant response rating,[2]; [21],0
same,B. signalgrass plant response rating,[2]; [19],0
same,B. signalgrass plant response rating,[2]; [20],0
same,"Plant response rating, B. signalgrass",[2]; [22],0
same,"Plant response rating, B. signalgrass",[2]; [23],0
same,Cocklebur plant response rating,[3]; [17],0
same,Cocklebur plant response rating (0 to 10 scale),"[3]; Preemergence, Rate 125 g/ha",0
same,Cocklebur plant response rating,[3]; [18],0
same,Cocklebur plant response rating,[3]; [21],0
same,Cocklebur plant response rating,[3]; [19],0
same,Cocklebur plant response rating,[3]; [20],0
same,"Plant response rating, Cocklebur",[3]; [22],0
same,"Plant response rating, Cocklebur",[3]; [23],0
same,Corn plant response rating,[4]; [17],0
same,Corn plant response rating (0 to 10 scale),"[4]; Preemergence, Rate 125 g/ha",0
same,Corn plant response rating,[4]; [18],0
same,Corn plant response rating,[4]; [21],0
same,Corn plant response rating,[4]; [19],0
same,Corn plant response rating,[4]; [20],0
same,"Plant response rating, Corn",[4]; [22],0
same,"Plant response rating, Corn",[4]; [23],0
same,Giant foxtail plant response rating,[5]; [17],0
same,Giant foxtail plant response rating (0 to 10 scale),"[5]; Preemergence, Rate 125 g/ha",0
same,Giant foxtail plant response rating,[5]; [18],0
same,Giant foxtail plant response rating,[5]; [21],2
same,Giant foxtail plant response rating,[5]; [19],0
same,Giant foxtail plant response rating,[5]; [20],0
same,"Plant response rating, Giant foxtail",[5]; [22],0
same,"Plant response rating, Giant foxtail",[5]; [23],0
same,Redroot pigweed plant response rating,[6]; [17],0
same,Redroot pigweed plant response rating (0 to 10 scale),"[6]; Preemergence, Rate 125 g/ha",0
same,Redroot pigweed plant response rating,[6]; [18],0
same,Redroot pigweed plant response rating,[6]; [21],0
same,Redroot pigweed plant response rating,[6]; [19],0
same,Redroot pigweed plant response rating,[6]; [20],0
same,"Plant response rating, Redroot pigweed",[6]; [22],0
same,"Plant response rating, Redroot pigweed",[6]; [23],0
same,Rape plant response rating,[7]; [17],0
same,Rape plant response rating (0 to 10 scale),"[7]; Preemergence, Rate 125 g/ha",0
same,Rape plant response rating,[7]; [18],0
same,Rape plant response rating,[7]; [21],0
same,Rape plant response rating,[7]; [19],0
same,Rape plant response rating,[7]; [20],0
same,"Plant response rating, Rape",[7]; [22],0
same,"Plant response rating, Rape",[7]; [23],0
same,Soybean plant response rating,[8]; [17],0
same,Soybean plant response rating (0 to 10 scale),"[8]; Preemergence, Rate 125 g/ha",0
same,Soybean plant response rating,[8]; [18],0
same,Soybean plant response rating,[8]; [21],0
same,Soybean plant response rating,[8]; [19],0
same,Soybean plant response rating,[8]; [20],1
same,"Plant response rating, Soybean",[8]; [22],2
same,"Plant response rating, Soybean",[8]; [23],2
same,Sugarbeets plant response rating,[9]; [17],0
same,Sugarbeets plant response rating (0 to 10 scale),"[9]; Preemergence, Rate 125 g/ha",0
same,Sugarbeets plant response rating,[9]; [18],0
same,Sugarbeets plant response rating,[9]; [21],0
same,Sugarbeets plant response rating,[9]; [19],0
same,Sugarbeets plant response rating,[9]; [20],0
same,"Plant response rating, Sugarbeets",[9]; [22],0
same,"Plant response rating, Sugarbeets",[9]; [23],0
same,Velvetleaf plant response rating,[10]; [17],0
same,Velvetleaf plant response rating (0 to 10 scale),"[10]; Preemergence, Rate 125 g/ha",0
same,Velvetleaf plant response rating,[10]; [18],0
same,Velvetleaf plant response rating,[10]; [21],0
same,Velvetleaf plant response rating,[10]; [19],0
same,Velvetleaf plant response rating,[10]; [20],0
same,"Plant response rating, Velvetleaf",[10]; [22],0
same,"Plant response rating, Velvetleaf",[10]; [23],0
same,Wheat plant response rating,[11]; [17],0
same,Wheat plant response rating (0 to 10 scale),"[11]; Preemergence, Rate 125 g/ha",0
same,Wheat plant response rating,[11]; [18],0
same,Wheat plant response rating,[11]; [21],0
same,Wheat plant response rating,[11]; [19],0
same,Wheat plant response rating,[11]; [20],0
same,"Plant response rating, Wheat",[11]; [22],0
same,"Plant response rating, Wheat",[11]; [23],0
same,Wild oats plant response rating,[12]; [17],0
same,Wild oats plant response rating (0 to 10 scale),"[12]; Preemergence, Rate 125 g/ha",0
same,Wild oats plant response rating,[12]; [18],0
same,Wild oats plant response rating,[12]; [21],0
same,Wild oats plant response rating,[12]; [19],0
same,Wild oats plant response rating,[12]; [20],0
same,"Plant response rating, Wild oats",[12]; [22],0
same,"Plant response rating, Wild oats",[12]; [23],0
same,Nutsedge plant response rating,[13]; [17],0
same,Nutsedge plant response rating (0 to 10 scale),"[13]; Preemergence, Rate 125 g/ha",0
same,Nutsedge plant response rating,[13]; [21],0
same,Nutsedge plant response rating,[13]; [19],0
same,Nutsedge plant response rating,[13]; [20],0
same,"Plant response rating, Nutsedge",[13]; [22],0
same,"Plant response rating, Nutsedge",[13]; [23],0
same,Rice plant response rating,[14]; [24],0
same,Rice plant response rating,[14]; [25],0
same,Rice plant response rating,[14]; [26],0
same,Rice plant response rating,[14]; [27],0
same,S. Flatsedge plant response rating,[15]; [24],0
same,S. Flatsedge plant response rating,[15]; [25],0
same,S. Flatsedge plant response rating,[15]; [26],0
same,S. Flatsedge plant response rating,[15]; [27],0
same,Ducksalad plant response rating,[16]; [24],0
same,Ducksalad plant response rating,[16]; [25],0
same,Ducksalad plant response rating,[16]; [26],0
same,Ducksalad plant response rating,[16]; [27],0
